From ChEMBL document CHEMBL1130777, “L-374,087, an efficacious, orally bioavailable, pyridinone acetamide thrombin inhibitor” (Bioorg Med Chem Lett, 1998) come the findings set out here.

In general, Ki refers to the dissociation constant of the complex between target and ligand, obtained from inhibition or displacement. Usually half-life stands for the time needed for the level to fall by half in the phase considered. As usually defined, the Cmax is the highest concentration seen after dosing.

Series [1] addresses Serine protease 1 (Homo sapiens, UniProt P07477). In words: Binding affinity towards trypsin was evaluated.
The target of series [2] is Prothrombin (Homo sapiens, UniProt P00734). In words: Binding affinity towards thrombin was evaluated.
A short description of series [3]: Compound was evaluated for the half life period after iv administration in cynomolgus monkey. The format is ADME, organism-based. The conditions noted are these: cercopithecidae, in vivo.
Series [4] in a line: Maximum concentration was evaluated after 75 min after administration in dog. The format is ADME, organism-based, Canis lupus familiaris. The conditions noted are these: in vivo.
Series [5] in a line: Compound was evaluated for the oral bioavailability after oral administration in dog. The format is ADME, organism-based, Canis lupus familiaris. Conditions: in vivo, read-out: Bioavailabiility.
The nature of series [6]: Compound was evaluated for the half life period after iv administration in Beagle dog. The conditions noted are these: in vivo. The format is ADME, organism-based, Canis lupus familiaris.
Series [7] can be described thus: Oral bioavailability after 5 mg/kg in cynomolgus monkey was determined. The format is ADME, organism-based. Conditions: cercopithecidae, in vivo, read-out: Bioavailabiility.
In series [8] the test system is Rattus norvegicus. In words: Incidence of occlusion was determined in the rat ferric chloride arterial thrombosis model at 1 dose ug/kg/min after intravenous administration; 5/6. The format is functional.
The test system of series [9] is Rattus norvegicus. In words: Incidence of occlusion was determined in the rat ferric chloride arterial thrombosis model at 10 dose ug/kg/min after intravenous administration; 0/9. The format is functional.
Series [10] relates to Rattus norvegicus. In words: Incidence of occlusion was determined in the rat ferric chloride arterial thrombosis model at 3 dose ug/kg/min after intravenous administration; 2/6. The format is functional.
The test system of series [11] is Rattus norvegicus. In words: Incidence of occlusion was determined in the rat ferric chloride arterial thrombosis model at 5 dose ug/kg/min after intravenous administration; 1/6. The format is functional.

Serine protease 1, sequence (P07477 whole entry): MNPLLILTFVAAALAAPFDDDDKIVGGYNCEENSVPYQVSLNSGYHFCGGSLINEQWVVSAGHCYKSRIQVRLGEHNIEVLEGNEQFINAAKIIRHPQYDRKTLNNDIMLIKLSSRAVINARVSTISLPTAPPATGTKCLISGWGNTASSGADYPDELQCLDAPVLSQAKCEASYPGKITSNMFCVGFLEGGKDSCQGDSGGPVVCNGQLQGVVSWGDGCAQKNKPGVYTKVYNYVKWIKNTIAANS

Consider `Cc1nc(N)ccc1CNC(=O)Cn1c(C)ccc(NCCc2ccccc2)c1=O`, for which the Ki in series [1] amounted to 4300 nM; in series [2], 2.3 nM.
With `Cc1cc(N)nc(C)c1CNC(=O)Cn1c(C)ccc(NS(=O)(=O)Cc2ccccc2)c1=O`, the Ki was 2100 nM in [1] and 0.33 nM in series [2].
For `Cc1cc(N)ncc1CNC(=O)Cn1c(C)ccc(NS(=O)(=O)Cc2ccccc2)c1=O`, the figures for the Ki in series [1] and in series [2] were 1500 nM and 12 nM, respectively.
Take `Cc1ccc(NS(=O)(=O)Cc2ccccc2)c(=O)n1CC(=O)NCc1ccc(N)nc1`: the Ki came out at 3000 nM in [1] and 11 nM in series [2].
Regarding `Cc1nc(N)ccc1CNC(=O)Cn1cccc(NS(=O)(=O)Cc2ccccc2)c1=O`, the Ki in [1] was determined as 20000 nM; in series [2] it was 26 nM.
As for `Cc1nc(N)ccc1CNC(=O)Cn1c(C)ccc(NS(=O)(=O)Cc2ccccc2)c1=O.Cl`, the half-life in series [3] worked out at 2.42 h; in series [6] it was 1.5 h. The compound further showed a Cmax in series [4] of 990 nM. The bioavailability in series [5] amounted to 44%; in series [7] it was 19%.
`Cc1nc(N)ccc1CNC(=O)Cn1c(C)ccc(NS(=O)(=O)Cc2ccccc2)c1=O` [L-374087]: the Incidence of occlusion in series [8] was 5; in series [9], 0; in [10], 2; in series [11], 1.
